Where a name gives a salt, the structure may show the parent alone. Positions of bridges follow the written chain, without caps; N, C: chain ends. Non-standard residues stand in square brackets, D forms with d. Residues, ends and D or L forms follow the SMILES beside them. *: point of attachment. X1 = CC[C@H](C)CCCCC(=O)*; Dab = NCC[C@H](N)C(=O)O
Experiments:
[1] = Colistin content in luminal intestinal content (LIC) by UHPLC-MS/MS, non-compartmental PK analysis; type: in vivo, broiler chicken (Gallus gallus domesticus)
Source text: (§1) This study was approved by the Royal Veterinary College ethics and welfare committee. One hundred Ross 308 broiler chicken (Gallus gallus domesticus) were obtained from an approved supplier and housed in the animal welfare barn (AWB) at the Royal Veterinary College. Poultry were group-housed and fed baby chick crumbs (Smallholder Range, Norfolk, UK), a feed free of coccidiostats and designed to feed from hatching to 6–8 weeks, and given free access to water for the duration of the study. At 13 days, six birds were separated and maintained as a control group for the course of the study with the remaining 94 birds constituting the study group. European Pharmacopeia-compliant Meiji Seika Pharma's colistin sulfate (ColiMeiji®, hereafter “colistin”) consisting of a 78.53% (“as is”) mixture of colistin A (polymyxin E1) and colistin B (polymyxin E2), was per certificate of analysis (CoA) supplied by Wyjolab (Chaillac, France). Potency of colistin (as reported by CoA) was 23,558 IU/mg, and dosing was calculated as equivalent colistin base. Colistin was administered via drinking water to the study group at a dose equal to 75,000 IU/kg/day over a period of 3 days. The volume of colistin stock solution (2,000,000 IU/ml) diluted per 3-L drinking bell (Poultry Drinker 3L, Farm & Country Supplies, Alton, Hampshire, UK) was based on the average bird weight and water consumption measured on the day prior to dosing. Actual dose received every 24 h was back calculated based on measured water consumption for that period and bird weights. Birds were housed in a 25-m^2 floor pen with access to 5 × 3-L drinking bells, refreshed every 24 h. Average relative humidity was 44.5% (range: 29–63%) and average temperature 24°C (range: 20–28°C). Birds were provided a 14-h photoperiod aligned with onset of dosing (0 h) at 07:00.
(§2) The study group was sampled at predetermined times pre-dose (0 h), during oral dosing (at 12, 36, and 54 h), at cessation of dosing (72 h), and after dosing (73, 74, 76, 80, 84, 96, 120, and 144 h from the onset of dosing). At each time point, eight birds were sacrificed, except at 12, 36, and 54 h where only six birds were sacrificed. After neck dislocation, cloacal swabs were immediately taken, and the whole small intestine was excised after placing three ligatures (one around the duodenum, one on the ileum just proximally to the cecal attachment, and one distally to include the large intestine). All samples were stored at 4°C for no more than 48 h prior to further analysis. All birds in the control group underwent cloacal sampling at matching time points.
Each intestinal specimen was individually processed with a new set of examination gloves and blades to avoid carry over or contamination. The ceca were separated from the small intestine by cutting off the ileum proximally to the ligature. The luminal intestinal content (LIC) was then evacuated through peristaltic massage of the small intestine in a proximal-to-distal direction. Extracted LIC was mixed to ensure a homogenous sample, and 200 mg (±2 mg) aliquots were separated for further testing. Parietal intestinal content (PIC) was collected following LIC; the intestine was inflated with air, straightened, and longitudinally incised with a scalpel blade no. 11. The opened intestine was flattened, and the blade was used to scrape the parietal lining of the intestine. Luminal cecal content (LCC) was extracted in a similar fashion following incision at one end. Aliquots for colistin quantification were stored at −80°C or at 4°C for bacterial enumeration and isolation.
Total colistin content was quantified using a novel ultra-high-performance liquid chromatography-tandem mass spectrometry (UHPLC-MS/MS) method. […]

[2] = test system: enteric E. coli; experiment: Enumeration of E. coli in luminal intestinal content on UriSelect 4 agar during and after colistin treatment; type: in vivo, Escherichia coli
Source text: as §1
as §2, with “All birds in the control group underwent cloacal sampling at matching time points.” left out
UriSelect 4™ agar (Bio-Rad, Watford, UK) plates were used for enumeration and isolation of E. coli from LIC. […] Bacterial counts in original LIC were back calculated based on the total number of colonies countable on UriSelect 4™ agar. […]

[3] = LIC, nominal dose 75,000 IU/kg/day, NCA sparse option, 6 to 8 birds per time point
[4] = nominal dose 75,000 IU/kg/day via drinking water, from partial AUC, NCA sparse option
[5] = during dosing, 75,000 IU/kg/day via drinking water, n = 6, median baseline 3.6 × 10^6 CFU/g

For `CC[C@H](C)CCCCC(=O)N[C@@H](CCN)C(=O)N[C@H](C(=O)N[C@@H](CCN)C(=O)N[C@H]1CCNC(=O)[C@H]([C@@H](C)O)NC(=O)[C@H](CCN)NC(=O)[C@H](CCN)NC(=O)[C@H](CC(C)C)NC(=O)[C@@H](CC(C)C)NC(=O)[C@H](CCN)NC1=O)[C@@H](C)O` [colistin, colistin sulfate] (X1-[Dab]T[Dab][Dab][Dab][dL]L[Dab][Dab]T; lactam 4-C), the “Partial AUC, AUC0-24h (first day)” value [1, 3] was 54.1 mg·h/kg, the “Partial AUC, AUC24-48h (second day)” value [1, 3] was 75.5 mg·h/kg and the “Partial AUC, AUC48-72h (third day)” value [1, 3] was 112.6 mg·h/kg. The tissue level at time at 72 h ([1]; Ross 308 broiler, luminal intestinal content (LIC), po, 75000 IU/kg/day, 75,000 IU/kg/day via drinking water for 72 h, 72 h, mean of n = 8 birds, read-out: mean colistin content in LIC at cessation of dosing) was 4510 ng/g, the “mean colistin content in LIC, peak” value ([1]; broiler chickens, colistin sulfate 75,000 IU/kg/day via drinking water for 72 h, 54 h from onset of dosing, mean of n = 6 birds, UHPLC-MS/MS, LOQ 1.1 mg/kg) was 5.09 mg/kg and the “Average colistin luminal intestinal content, 0-48 h (first and second day)” value [1, 4] was 2.70 mg/kg digesta. For the same molecule, the “Average colistin luminal intestinal content, 24-48 h (second day)” value [1, 4] was 3.15 mg/kg digesta, the “median E. coli count in LIC at 96, 120 and 144 h” value ([2]; after dosing, to end of the experiment, n = 8 per time point) was ~5 × 10^5 and the “median E. coli count in LIC at 36 h” value [2, 5] was 3.9 × 10^3 CFU/g. The “median E. coli count in LIC at 54 h” value [2, 5] was 1.56 × 10^4 CFU/g and the “log reduction in the number of E. coli” value ([2]; up to 36 h post-onset of colistin administration) was > 3 log.

Reference: article PMC8264055, “Pharmacokinetics of Colistin in the Gastrointestinal Tract of Poultry Following Dosing via Drinking Water and Its Bactericidal Impact on Enteric Escherichia coli” (Frontiers in Veterinary Science, 2021)
